{"source": "patent US20060051374A1", "about": "“Compositions and methods for mucosal vaccination” (3M Innovative Properties Company, priority 2004, published 2006)", "tested_on": "OT-I cells", "experiment": "Total OT-I cell numbers in lymphoid tissues and percentage in nasal mucosa at Day 7 (Example 1)", "assay_type": "in vivo, C57BL/6 mice", "protocol": "An Ovalbumin-IRM1 conjugate was prepared as follows. IRM1 was suspended in dimethyl sulfoxide (DMSO) to 10 mg/ml. Ovalbumin was suspended in phosphate buffered saline (PBS) to 10 mg/ml and the pH adjusted to >10.0 by the addition of NaOH. 500 μL of the ovalbumin solution (5 mg ovalbumin) was mixed with 100 μL of the IRM1 solution (1 mg IRM1) in a single well of a 12-well tissue culture plate. The plate was placed on ice and a long wavelength UV light source was placed directly over the plate as close to the well containing the IRM1/ovalbumin mixture as possible. The mixture was irradiated for 15 minutes. […]\nChicken Ovalbumin-specific CD8^+ T cells (OT-I, The Jackson Laboratories, Bar Harbor, Me.) were labeled with carboxyfluoroscein succinimidyl ester (CFSE, Molecular Probes, Inc., Eugene, Oreg.), a fluorescent dye that stains cells in a stabile manner, and then adoptively transferred into syngenic C57BL/6 mice (Charles River Laboratories, Wilmington, Mass.). […] Cells were then run on a FACSCaliber (Becton, Dickinson, and Co., San Jose, Calif.) and CD8^+SIINFEKL/K^b tetramer^+ T cells were analyzed for CFSE expression.\nSeparately, total OT-I cell numbers at Day 7 were counted in nasal associated lymphoid tissue (NALT), cervical lymph node (CLN), and spleen (Spl). […] Additionally, the percentage of OT-I cells in the nasal mucosa at determined at Day 7. […]", "data": [{"smiles": "CCOCc1nc2c(N)nc3ccccc3c2n1CC(C)(C)NC(=O)CCCCCNC(=O)c1ccc(N=[N+]=[N-])cc1O", "note": "[IRM1, N-[6-({2-[4-amino-2-(ethoxymethyl)-1H-imidazo[4,5-c]quinolin-1-yl]-1,1-dimethylethyl}amino)-6-oxohexyl]-4-azido-2-hydroxybenzamide]", "values": [{"measurement": "total OT-I cell numbers, intranasal IRM1 plus antigen versus antigen alone", "setting": "Ovalbumin-IRM1 conjugate intranasal, FIG. 2", "value": "greater total OT-I cell numbers at Day 7 than antigen alone"}, {"measurement": "total OT-I cell numbers, intranasal versus intravenous delivery", "setting": "Ovalbumin-IRM1 conjugate, NALT, CLN, spleen, FIG. 2A-2C", "value": "greater total OT-I cell numbers at Day 7 than intravenous delivery in all lymphoid tissues examined"}]}]}
